Activity calls are given as the source filed them.
How the values were obtained:
[1] = toxicity toward HepG2 liver cells – cell-based, plate reader, cherry-pick, antagonist series, cytotoxicity control, dose response (AID 743416); type: functional
[2] = viability loss in HEK293 cells – cell-based, plate reader, cherry-picked samples, cytotoxicity control, dose response (AID 743446); type: functional
cells [3] = type: functional, cell-based
[4] = biological target: T1, Oxysterols receptor LXR-beta (Homo sapiens, UniProt P55055); type: functional, cell-based;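 also: Cell-based luminescence dose-response assay of agonist activity at LXR, run as a confirmatory counterscreen to a daf-12 agonist screen; HEK293 cells with Gal4-LXR fusion and GAL4-driven luciferase reporter; agonist potency from rising luciferase signal of a Gal4-LXR reporter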
T1 sequence (P55055 whole entry): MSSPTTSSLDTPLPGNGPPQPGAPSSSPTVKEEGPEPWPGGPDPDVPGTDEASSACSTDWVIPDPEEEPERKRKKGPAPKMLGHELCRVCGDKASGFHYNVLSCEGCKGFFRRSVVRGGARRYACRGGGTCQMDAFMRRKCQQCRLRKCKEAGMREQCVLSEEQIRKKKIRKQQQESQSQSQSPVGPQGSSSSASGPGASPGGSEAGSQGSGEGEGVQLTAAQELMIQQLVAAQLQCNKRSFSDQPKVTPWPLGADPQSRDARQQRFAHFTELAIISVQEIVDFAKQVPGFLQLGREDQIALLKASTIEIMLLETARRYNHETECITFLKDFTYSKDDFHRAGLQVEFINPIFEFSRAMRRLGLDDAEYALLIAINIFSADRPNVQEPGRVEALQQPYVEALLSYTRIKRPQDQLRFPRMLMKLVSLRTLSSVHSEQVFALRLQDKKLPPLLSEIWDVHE

[5] = blockers of bursicon-stimulated LGR2 cAMP reporter – cell-based, HEK293, CRE-luciferase reporter, cherry pick, set 2, dose response (AID 743343); type: functional;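 also: transfected cells were stimulated with diluted bursicon conditioned medium after compound addition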
[6] = blockade of melanocortin 4 receptor signaling – cell-based, plate reader, cherry pick, counter-screen for LGR2 antagonist project, dose response (AID 743444); type: functional;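 also: transfected HEK 293 cells stimulated with alpha-MSH peptide; potency of inhibitors of the alpha-MSH evoked signal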
cells [7] = type: functional, cell-based; remark: listed apart in the source
cells [8] = test: cells
[9] = A549 cell cytotoxicity, dose response, cytotoxicity control, plate reader, cherry-pick, antagonist series (AID 743412); type: functional, cell-based
Beta-galactosidase = Beta-galactosidase (Escherichia coli, UniProt Q8VNN2); test: Dose response counterscreen for EBI2 assay utilizing the enzyme, b-galactosidase.; type: functional
Sequence of Beta-galactosidase (Q8VNN2 whole entry): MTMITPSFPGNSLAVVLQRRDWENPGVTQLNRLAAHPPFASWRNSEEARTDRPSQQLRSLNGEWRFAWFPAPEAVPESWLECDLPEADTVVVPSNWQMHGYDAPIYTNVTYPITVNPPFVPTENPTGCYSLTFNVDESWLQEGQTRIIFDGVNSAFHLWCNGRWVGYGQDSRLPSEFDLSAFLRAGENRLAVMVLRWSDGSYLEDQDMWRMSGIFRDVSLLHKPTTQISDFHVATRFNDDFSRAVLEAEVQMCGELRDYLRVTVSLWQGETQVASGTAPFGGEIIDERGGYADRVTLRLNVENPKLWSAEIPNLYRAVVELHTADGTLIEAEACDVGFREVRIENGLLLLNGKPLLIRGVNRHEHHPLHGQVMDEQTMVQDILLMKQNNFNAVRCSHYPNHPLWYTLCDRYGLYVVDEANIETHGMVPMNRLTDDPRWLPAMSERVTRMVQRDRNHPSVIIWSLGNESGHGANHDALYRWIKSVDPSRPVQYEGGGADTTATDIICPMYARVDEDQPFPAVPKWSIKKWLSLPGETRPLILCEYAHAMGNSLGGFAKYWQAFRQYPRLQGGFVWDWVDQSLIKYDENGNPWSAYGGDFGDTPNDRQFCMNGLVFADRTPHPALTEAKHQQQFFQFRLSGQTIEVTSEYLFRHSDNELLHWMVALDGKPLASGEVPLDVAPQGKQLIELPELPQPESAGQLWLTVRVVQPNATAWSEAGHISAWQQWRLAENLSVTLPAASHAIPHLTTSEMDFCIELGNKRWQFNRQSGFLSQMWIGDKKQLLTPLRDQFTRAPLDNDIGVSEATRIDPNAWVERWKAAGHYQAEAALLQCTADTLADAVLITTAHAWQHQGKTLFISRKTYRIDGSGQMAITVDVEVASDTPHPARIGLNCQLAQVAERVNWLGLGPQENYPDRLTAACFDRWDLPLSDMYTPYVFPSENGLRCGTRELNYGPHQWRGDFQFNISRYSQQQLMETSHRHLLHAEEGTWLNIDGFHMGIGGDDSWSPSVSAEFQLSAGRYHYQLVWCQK

Fatty acid synthase [10] = biological target: T2, Fatty acid synthase (Homo sapiens, UniProt P49327); test: inhibition of human FAS-TE enzyme activity – biochemical, endpoint fluorescence intensity, uHTS hits, dose response (AID 624327); type: functional;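 also: fluorescence from hydrolysis of an O-methyl fluorescein acyl ester substrate by the enzyme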
T2 sequence (P49327 whole entry): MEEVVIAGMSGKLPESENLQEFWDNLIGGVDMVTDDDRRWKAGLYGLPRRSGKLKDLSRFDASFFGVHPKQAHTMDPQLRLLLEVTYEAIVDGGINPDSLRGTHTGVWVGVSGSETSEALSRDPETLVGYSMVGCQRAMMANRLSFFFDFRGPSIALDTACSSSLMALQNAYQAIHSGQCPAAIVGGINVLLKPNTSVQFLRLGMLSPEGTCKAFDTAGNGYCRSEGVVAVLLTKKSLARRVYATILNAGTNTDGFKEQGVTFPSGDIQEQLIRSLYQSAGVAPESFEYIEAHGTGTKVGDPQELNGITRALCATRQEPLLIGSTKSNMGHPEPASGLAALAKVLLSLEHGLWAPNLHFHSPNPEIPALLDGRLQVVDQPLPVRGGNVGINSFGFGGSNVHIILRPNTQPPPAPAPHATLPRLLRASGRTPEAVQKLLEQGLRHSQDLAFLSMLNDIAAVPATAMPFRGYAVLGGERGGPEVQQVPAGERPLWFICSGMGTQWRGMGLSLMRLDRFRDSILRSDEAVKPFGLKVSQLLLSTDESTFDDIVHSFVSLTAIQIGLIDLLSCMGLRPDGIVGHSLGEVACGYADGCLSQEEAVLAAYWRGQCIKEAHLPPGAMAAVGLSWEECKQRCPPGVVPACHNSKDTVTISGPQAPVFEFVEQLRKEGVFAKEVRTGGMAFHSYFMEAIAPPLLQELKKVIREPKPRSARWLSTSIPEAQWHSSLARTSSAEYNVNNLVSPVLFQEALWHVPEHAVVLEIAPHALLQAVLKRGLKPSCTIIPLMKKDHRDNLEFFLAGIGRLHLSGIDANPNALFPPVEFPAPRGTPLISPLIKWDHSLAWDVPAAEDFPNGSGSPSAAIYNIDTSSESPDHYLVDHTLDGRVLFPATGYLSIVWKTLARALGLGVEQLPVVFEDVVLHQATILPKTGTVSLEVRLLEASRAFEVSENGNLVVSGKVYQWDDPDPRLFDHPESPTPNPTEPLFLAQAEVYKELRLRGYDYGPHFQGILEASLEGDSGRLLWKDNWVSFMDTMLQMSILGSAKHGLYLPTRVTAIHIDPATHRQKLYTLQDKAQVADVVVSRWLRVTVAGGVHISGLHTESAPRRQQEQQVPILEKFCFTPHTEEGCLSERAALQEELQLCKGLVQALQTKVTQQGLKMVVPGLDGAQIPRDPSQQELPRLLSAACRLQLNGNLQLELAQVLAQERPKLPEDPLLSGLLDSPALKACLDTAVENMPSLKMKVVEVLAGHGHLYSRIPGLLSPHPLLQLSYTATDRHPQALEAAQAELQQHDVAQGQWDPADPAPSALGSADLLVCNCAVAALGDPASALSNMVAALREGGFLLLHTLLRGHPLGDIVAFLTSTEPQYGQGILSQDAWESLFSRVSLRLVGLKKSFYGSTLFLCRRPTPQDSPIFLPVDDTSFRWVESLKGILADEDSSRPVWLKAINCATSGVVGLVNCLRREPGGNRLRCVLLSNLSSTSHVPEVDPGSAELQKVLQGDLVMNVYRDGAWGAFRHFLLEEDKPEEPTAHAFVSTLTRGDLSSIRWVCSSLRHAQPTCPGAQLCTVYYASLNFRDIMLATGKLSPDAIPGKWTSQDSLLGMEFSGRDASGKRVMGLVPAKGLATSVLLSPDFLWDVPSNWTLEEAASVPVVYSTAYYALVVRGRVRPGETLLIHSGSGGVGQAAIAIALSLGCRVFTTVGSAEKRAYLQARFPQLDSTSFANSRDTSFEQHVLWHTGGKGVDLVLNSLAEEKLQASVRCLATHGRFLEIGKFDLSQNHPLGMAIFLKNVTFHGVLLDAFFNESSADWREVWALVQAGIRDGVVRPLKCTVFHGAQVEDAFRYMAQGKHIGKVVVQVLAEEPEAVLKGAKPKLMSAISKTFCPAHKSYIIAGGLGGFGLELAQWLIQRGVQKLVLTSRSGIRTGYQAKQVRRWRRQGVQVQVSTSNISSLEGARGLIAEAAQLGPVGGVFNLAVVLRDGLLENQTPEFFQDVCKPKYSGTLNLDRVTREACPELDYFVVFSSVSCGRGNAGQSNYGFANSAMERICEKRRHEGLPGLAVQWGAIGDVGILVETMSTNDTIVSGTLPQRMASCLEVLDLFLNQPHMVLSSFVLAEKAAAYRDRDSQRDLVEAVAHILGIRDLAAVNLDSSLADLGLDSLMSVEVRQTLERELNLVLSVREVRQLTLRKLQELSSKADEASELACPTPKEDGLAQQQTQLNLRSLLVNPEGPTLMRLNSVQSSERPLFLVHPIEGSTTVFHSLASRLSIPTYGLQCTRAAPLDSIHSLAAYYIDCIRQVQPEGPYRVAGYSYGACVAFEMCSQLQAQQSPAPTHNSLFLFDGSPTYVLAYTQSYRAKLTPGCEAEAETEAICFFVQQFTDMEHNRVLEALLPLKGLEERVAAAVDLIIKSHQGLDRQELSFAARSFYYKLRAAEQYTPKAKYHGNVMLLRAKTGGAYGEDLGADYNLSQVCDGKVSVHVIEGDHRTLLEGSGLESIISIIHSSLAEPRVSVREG

[11] = biological target: T3, Probable nicotinate-nucleotide adenylyltransferase (Staphylococcus aureus (strain N315), UniProt P65502); type: functional, Staphylococcus aureus subsp. aureus N315; conditions: read-out: IC50_Mean;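 as to IC50 Mean: confirmatory dose-response retesting of NadD inhibitor hits first found in an ultra-high-throughput screen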
T3 sequence (P65502 whole entry): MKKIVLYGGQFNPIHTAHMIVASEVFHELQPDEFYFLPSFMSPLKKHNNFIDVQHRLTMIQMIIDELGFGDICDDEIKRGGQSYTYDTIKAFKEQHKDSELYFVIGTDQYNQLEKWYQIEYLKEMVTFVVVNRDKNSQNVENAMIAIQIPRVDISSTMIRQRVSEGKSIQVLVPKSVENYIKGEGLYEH

INS1 = test: INS-1E survival protection against cytokine death – cell-based, luminescence, retest, dose response (AID 449756); type: functional; conditions: Rattus norvegicus;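 also: cell death triggered by IL-1 beta plus TNF-alpha plus IFN-gamma mixture; protective hits raise ATP signal compared with cytokine alone wells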
[12] = biological target: T3, Probable nicotinate-nucleotide adenylyltransferase; type: functional, Staphylococcus aureus subsp. aureus N315
Fatty acid synthase [13] = biological target: T2, Fatty acid synthase; test: inhibition of human FAS-TE enzyme activity – biochemical, kinetic fluorescence intensity, dose response (AID 624326); type: functional;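 also: rate of fluorescence rise from hydrolysis of a fluorogenic O-methyl fluorescein ester substrate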
cells [14] = type: functional, cell-based; conditions: HEK-CNG
Galanin receptor type 3 = biological target: T4, Galanin receptor type 3 (Homo sapiens, UniProt O60755); test: Fluorescence-based cell-based primary high throughput dose response assay to identify antagonists of the Galanin Receptor 3 (GalR3).; type: functional
T4 sequence (O60755 whole entry): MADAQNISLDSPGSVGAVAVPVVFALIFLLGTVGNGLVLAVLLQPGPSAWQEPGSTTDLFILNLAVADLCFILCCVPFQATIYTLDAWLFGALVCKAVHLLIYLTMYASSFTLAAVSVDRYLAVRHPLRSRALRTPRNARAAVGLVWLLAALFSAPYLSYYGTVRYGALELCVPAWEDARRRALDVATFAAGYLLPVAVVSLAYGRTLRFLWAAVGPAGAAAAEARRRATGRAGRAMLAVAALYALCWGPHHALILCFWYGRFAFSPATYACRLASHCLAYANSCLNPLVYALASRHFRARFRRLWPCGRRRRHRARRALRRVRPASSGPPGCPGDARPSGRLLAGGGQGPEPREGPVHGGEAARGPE

[15] = biological target: T5, Long-chain-fatty-acid--AMP ligase FadD28 (Mycobacterium tuberculosis, UniProt P9WQ59); test: Fluorescence polarization aasay to screen for inhibitors that compete for the binding of FadD28 to a bisubstrate Measured in Biochemical System Using Plate Reader - 2147-01_Inhibitor_Dose_CherryPick_Activity.; type: functional, Mycobacterium tuberculosis H37Rv
T5 sequence (P9WQ59 whole entry): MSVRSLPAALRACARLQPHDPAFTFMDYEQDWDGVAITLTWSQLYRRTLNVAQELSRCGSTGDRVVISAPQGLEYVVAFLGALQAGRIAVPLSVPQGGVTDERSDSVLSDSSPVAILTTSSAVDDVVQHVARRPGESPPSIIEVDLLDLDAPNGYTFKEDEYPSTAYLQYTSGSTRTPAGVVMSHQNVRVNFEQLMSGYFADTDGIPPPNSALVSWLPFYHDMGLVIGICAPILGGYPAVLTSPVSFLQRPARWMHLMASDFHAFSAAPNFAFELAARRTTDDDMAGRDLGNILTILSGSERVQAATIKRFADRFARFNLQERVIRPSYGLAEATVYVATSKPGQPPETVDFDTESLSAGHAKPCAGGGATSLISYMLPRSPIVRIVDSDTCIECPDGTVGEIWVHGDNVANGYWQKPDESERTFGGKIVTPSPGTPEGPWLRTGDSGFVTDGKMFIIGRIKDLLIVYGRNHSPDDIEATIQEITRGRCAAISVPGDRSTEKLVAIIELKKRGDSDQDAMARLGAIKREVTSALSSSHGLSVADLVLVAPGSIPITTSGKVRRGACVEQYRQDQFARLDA

[16] = non-specific 3'UTR reporter inhibition in Clone20-Shn3RL – cell-based, Renilla luciferase, cherry-picked, counter-screen for Shn3 inhibitor project, dose response (AID 624133); type: functional
[17] = HEK-293T viability loss after treatment – luminescence, T-cell screen hits, cytotoxicity control for TCR NF-kB inhibitor project, dose response (AID 489026); type: functional, cell-based;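 also: cells exposed to compound about 14 hours before the viability readout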
[18] = loss of viability in HepG2 cells – cell-based, CellTiter-Glo, cherry-picked, cytotoxicity control for Shn3 inhibitor project, dose response (AID 624134); type: functional
[19] = reduction of Shn3 3'UTR-driven luciferase in osteoblasts – cell-based, Clone20 osteoblasts, firefly luciferase, cherry-picked, dose response (AID 624132); type: functional;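 also: firefly luciferase luminescence from reporter carrying the Shn3 3'UTR in osteoblasts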
cells [20] = type: functional, cell-based; remark: listed apart in the source
[21] = biological target: T6, Nuclear receptor subfamily 0 group B member 1 (Homo sapiens, UniProt P51843); type: functional, cell-based;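 also: HEK293T cells transfected with SF-1 and DAX-1 plus StAR promoter luciferase reporter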
T6 sequence (P51843 whole entry): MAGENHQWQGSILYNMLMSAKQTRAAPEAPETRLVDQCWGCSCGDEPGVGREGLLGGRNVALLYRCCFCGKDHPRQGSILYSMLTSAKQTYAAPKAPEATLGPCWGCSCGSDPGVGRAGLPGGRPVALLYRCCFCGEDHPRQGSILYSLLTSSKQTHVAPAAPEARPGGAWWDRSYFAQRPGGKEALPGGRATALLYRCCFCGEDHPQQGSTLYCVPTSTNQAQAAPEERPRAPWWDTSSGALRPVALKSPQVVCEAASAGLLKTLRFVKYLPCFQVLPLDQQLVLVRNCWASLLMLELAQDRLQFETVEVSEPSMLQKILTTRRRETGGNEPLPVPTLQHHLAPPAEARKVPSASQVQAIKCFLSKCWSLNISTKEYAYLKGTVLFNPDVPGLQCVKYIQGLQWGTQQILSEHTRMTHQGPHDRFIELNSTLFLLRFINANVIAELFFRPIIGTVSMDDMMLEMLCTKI

**Q.** What does the source list for O=C(Nc1ccc2ccccc2c1)c1ccccc1O?
**A.** AC50 [1]: 6.27 µM (active); AC50 [2]: 7.8 µM (active); EC50 (cells [3]): 6.87 µM (active); EC50 [4]: > 67.6 µM (inactive); AC50 [5]: 7.6 µM (active); AC50 [6]: 6.02 µM (active); EC50 (cells [7]): > 350 µM (not active); EC50 (cells [8]): > 67.6 µM (inactive); AC50 [9]: > 52 µM (inactive)

**Q.** With COc1ccc(/C=C/C(=O)N2CCN(S(=O)(=O)/C=C/c3ccccc3)CC2)cc1OC as the compound, how does the IC50 (Beta-galactosidase) read?
**A.** Its IC50 is > 80 µM (inactive).

**Q.** What does the source list for Cc1cc(-c2ccccc2)n2ncc(-c3ccccc3)c2n1?
**A.** AC50 [1]: 39.3 µM (active); EC50 [4]: > 67.5 µM (inactive); AC50 [5]: 4.98 µM (active); AC50 [6]: 7.1 µM (active); EC50 (cells [8]): > 67.5 µM (inactive); AC50 [9]: > 52 µM (inactive)

**Q.** What does the source list for Cc1ccc(S(=O)(=O)Nc2ccccc2C(=O)Nc2nc(-c3ccc(F)cc3)cs2)cc1?
**A.** IC50 (Fatty acid synthase [10]): 9.65 µM (active); IC50 [11]: 62.2 µM (active); AC50 (INS1): 2.97 µM (active); IC50 [12]: 7.69 µM (active); IC50 (Fatty acid synthase [13]): 10.7 µM (active); EC50 (cells [14]): > 29.9 µM (inactive); IC50 (Galanin receptor type 3): 1.44 µM (active)

**Q.** With C/C(Cl)=C/Cn1c(SC(C)C)nc2c1c(=O)[nH]c(=O)n2C as the compound, how does the AC50 [15] read?
**A.** The AC50 was > 100 µM (inactive).

**Q.** For Cc1ccc(Oc2ccc(OCC(=O)Nc3ccncc3)cc2)cc1, which AC50 [16] is on record?
**A.** The AC50 was < 1 µM (active).

**Q.** And the IC50 [17]?
**A.** The IC50 was > 80 µM (inactive).

**Q.** What about the AC50 [18] of the same compound?
**A.** The AC50 was 4.76 µM (active).

**Q.** What about the AC50 [19] of the same compound?
**A.** Its AC50 is 1.55 µM (active).

**Q.** What about the EC50 (cells [14]) of the same compound?
**A.** Its EC50 is > 29.9 µM (inactive).

**Q.** And the IC50 (Galanin receptor type 3)?
**A.** Its IC50 is 0.158 µM (active).

**Q.** Which IC50 (cells [20]) does the source give for S=C(NCCc1ccccc1)Nc1ncccn1 here?
**A.** The IC50 was > 67.5 µM (inactive).

**Q.** What about the IC50 [21] of the same compound?
**A.** The IC50 was > 67.5 µM (inactive).

From ChEMBL document CHEMBL1201862, “PubChem BioAssay data set” (2004)
